{
  "source": "patent US11266662B2",
  "about": "“Ganaxolone for use in prophylaxis and treatment of postpartum depression” (Marinus Pharmaceuticals, Inc., priority 2018, dated 2022)",
  "key": {"[1]": {"experiment": "Phase 2A study (Magnolia) in women with postpartum depression: ganaxolone plasma concentrations / pharmacokinetics", "settings": "for Ratio GNX Concentration (ng/mL)/(μg/hr/kg): individual subjects of Cohorts 1-3 (order of Table 1A), listed as GNX", "experimental": "Approximately 200 women with PPD 18 to 45 years of age are screened to randomize up to 100 subjects across up to 6 cohorts. Approximately 10-30 subjects are randomized into each cohort. Randomized subjects receive the investigational product (IP), ganaxolone or matching placebo in a 1:1 ratio. In Cohorts 1-5 the IP is administered intravenously over 60 hours. In Cohort 6 the dosing is initiated with a 6-hour intravenous (IV) infusion followed by oral dosing for 28 days plus 3-day taper.\nGanaxolone is infused at a rate of 4 mg/hr (16 ml/h of ganaxolone 0.25 mg/ml solution) for 48 hours and then, to minimize any risks for withdrawal or rebound of anxiety and depression symptoms, at a rate of 2 mg/hr for the next 12 hours. The infusion is stopped at 60 hours. Total of 9 subjects are dosed for this cohort.\nGanaxolone is infused at a rate of 8 mg/hr (16 ml/h of ganaxolone 0.5 mg/ml solution) for 48 hours and then at a rate of 4 mg/hr for the next 12 hours. This dose is approximately double the expected plasma exposure as compared to Cohort 1 at steady state (Cohort 2 expected plasma concentration ˜100-120 ng/mL). The infusion is stopped at 60 hours.\nTwelve mg bolus of ganaxolone is initially given over 2 minutes followed by ganaxolone infusion at a rate of 12 mg/hr (24 ml/h of ganaxolone 0.5 mg/ml solution) for 48 hours. The rate is then reduced to 6 mg/hr for the next 12 hours, which is done to minimize any risks for withdrawal or rebound of anxiety and depression symptoms. The infusion is stopped at 60 hours.\nIn this cohort dosing is initiated with ganaxolone infusion at a rate of 20 mg/hr (40 ml/h of ganaxolone 0.5 mg/ml solution or matching placebo) for 6 hours followed by ganaxolone 900 mg (four 225 mg capsules per dose) or matching placebo capsules given orally at dinner time for 28 days followed by a 3-day taper (three, two, and one 225 mg capsule(s) per day, respectively).\nThis initial infusion is targeted to provide a fast onset of antidepressant activity by delivery of rapid plasma exposures to ganaxolone. Then, at dinner time of Day 1 the subjects take their first oral dose of ganaxolone 900 mg (four 225 mg capsules) or matching placebo (4 capsules). […] In previous studies, ganaxolone has been given up to a daily dose of 2000 mg, and at single doses of 1000 mg.\nSix samples are collected for pharmacokinetic analysis in Cohorts 1-5 and 12 samples in Cohort 6. […] Seven samples are collected during the inpatient phase of Cohort 6 (including 6 samples on Day 1) followed by collection of 5 samples during the outpatient phase during the study visits for a total of 12 samples in Cohort 6."}, "[2]": {"tested_on": "synaptic and extrasynaptic GABAA receptors", "experiment": "Activation of synaptic and extrasynaptic GABAA receptors", "settings": "site distinct from the benzodiazepine site"}, "[3]": {"tested_on": "children and adolescents with fragile X syndrome", "settings": "in those with higher baseline anxiety; Ligsay et al, 2017; cited from earlier work"}, "[4]": {"settings": "human plasma following oral administration; cited from earlier work"}, "[5]": {"biological_target": "human ether-a-go-go related gene (hERG) receptor (Homo sapiens, UniProt Q12809)", "sequence (Q12809 whole entry)": "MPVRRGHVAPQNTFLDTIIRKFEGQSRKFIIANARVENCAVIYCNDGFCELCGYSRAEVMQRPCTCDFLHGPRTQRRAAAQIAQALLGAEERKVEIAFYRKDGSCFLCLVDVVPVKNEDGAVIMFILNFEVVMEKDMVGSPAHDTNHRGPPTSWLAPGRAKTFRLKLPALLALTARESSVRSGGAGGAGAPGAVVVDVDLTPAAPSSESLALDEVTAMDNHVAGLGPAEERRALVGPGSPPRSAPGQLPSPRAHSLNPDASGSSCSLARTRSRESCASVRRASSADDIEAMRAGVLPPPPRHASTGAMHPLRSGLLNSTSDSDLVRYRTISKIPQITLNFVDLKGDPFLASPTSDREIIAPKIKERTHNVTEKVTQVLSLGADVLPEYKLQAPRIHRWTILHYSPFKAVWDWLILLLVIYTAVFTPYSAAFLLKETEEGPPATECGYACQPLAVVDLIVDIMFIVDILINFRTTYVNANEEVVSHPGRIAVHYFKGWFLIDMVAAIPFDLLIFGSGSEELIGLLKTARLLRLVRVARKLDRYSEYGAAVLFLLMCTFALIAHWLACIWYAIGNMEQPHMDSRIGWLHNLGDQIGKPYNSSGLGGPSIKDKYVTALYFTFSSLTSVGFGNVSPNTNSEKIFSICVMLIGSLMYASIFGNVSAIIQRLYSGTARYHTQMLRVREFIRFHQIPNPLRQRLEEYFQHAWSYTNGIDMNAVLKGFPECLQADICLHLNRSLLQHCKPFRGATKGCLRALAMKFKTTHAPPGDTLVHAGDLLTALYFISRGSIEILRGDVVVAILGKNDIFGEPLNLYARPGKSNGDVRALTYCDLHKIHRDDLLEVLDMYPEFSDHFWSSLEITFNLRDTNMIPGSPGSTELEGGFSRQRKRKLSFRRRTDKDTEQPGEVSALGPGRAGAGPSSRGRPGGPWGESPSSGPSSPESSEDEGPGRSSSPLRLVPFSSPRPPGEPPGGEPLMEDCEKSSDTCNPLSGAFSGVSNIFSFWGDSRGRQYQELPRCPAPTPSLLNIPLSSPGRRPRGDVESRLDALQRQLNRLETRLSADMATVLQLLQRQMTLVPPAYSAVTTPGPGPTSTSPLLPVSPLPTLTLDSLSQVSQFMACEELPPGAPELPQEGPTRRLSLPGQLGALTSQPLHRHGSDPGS", "experiment": "hERG interaction (safety pharmacology)", "settings": "measured concentration of 70 nM (n=2)"}},
  "note": "Where “and” joins values, the source holds several entries; their conditions need not be identical. Equal values may be shown once.",
  "data": [
    {"compound": "CC(=O)[C@H]1CC[C@H]2[C@@H]3CC[C@H]4C[C@](C)(O)CC[C@]4(C)[C@H]3CC[C@]12C", "note": "[ganaxolone, 3α-hydroxy-3β-methyl-5α-pregnan-20-one]", "values": [
      {"measurement": "AUC", "setting": "[1]; female, human, plasma, iv, 200 ug/kg, AUC24-48, calculated from Table 1C, dose 200 μg/kg/hr (row order of Table 1C)", "result": 5350, "unit": "ng·h/mL"},
      {"measurement": "AUC", "setting": "[1]; female, human, plasma, iv, 210 ug/kg, AUC12-24, calculated from Table 1C, dose 210 μg/kg/hr (row order of Table 1C)", "result": 2530, "unit": "ng·h/mL"},
      {"measurement": "AUC", "setting": "[1]; female, human, plasma, iv, 210 ug/kg, AUC12-48, calculated from Table 1C, dose 210 μg/kg/hr (row order of Table 1C)", "result": 8150, "unit": "ng·h/mL"},
      {"measurement": "AUC", "setting": "[1]; female, human, plasma, iv, 210 ug/kg, AUC24-48, calculated from Table 1C, dose 210 μg/kg/hr (row order of Table 1C)", "result": 5620, "unit": "ng·h/mL"},
      {"measurement": "AUC", "setting": "[1]; female, human, plasma, iv, 220 ug/kg, AUC12-24, calculated from Table 1C, dose 220 μg/kg/hr (row order of Table 1C)", "result": 2650, "unit": "ng·h/mL"},
      {"measurement": "AUC", "setting": "[1]; female, human, plasma, iv, 220 ug/kg, AUC12-48, calculated from Table 1C, dose 220 μg/kg/hr (row order of Table 1C)", "result": 8540, "unit": "ng·h/mL"},
      {"measurement": "AUC", "setting": "[1]; female, human, plasma, iv, 220 ug/kg, AUC24-48, calculated from Table 1C, dose 220 μg/kg/hr (row order of Table 1C)", "result": 5890, "unit": "ng·h/mL"},
      {"measurement": "AUC", "setting": "[1]; female, human, plasma, iv, 260 ug/kg, AUC12-24, calculated from Table 1C, dose 260 μg/kg/hr (row order of Table 1C)", "result": 3130, "unit": "ng·h/mL"},
      {"measurement": "AUC", "setting": "[1]; female, human, plasma, iv, 260 ug/kg, AUC12-48, calculated from Table 1C, dose 260 μg/kg/hr (row order of Table 1C)", "result": 10100, "unit": "ng·h/mL"},
      {"measurement": "AUC", "setting": "[1]; female, human, plasma, iv, 260 ug/kg, AUC24-48, calculated from Table 1C, dose 260 μg/kg/hr (row order of Table 1C)", "result": 6960, "unit": "ng·h/mL"},
      {"measurement": "concentration at 12 h", "setting": "[1]; female, human, plasma, iv, GNX Concentration, Cohort 1: IV 4 mg/hr for 48 h then 2 mg/hr for 12 h, individual subjects, time 12 hr", "result": 58.8, "unit": "ng/mL"},
      {"measurement": "concentration at 24 h", "setting": "[1]; female, human, plasma, iv, GNX Concentration, Cohort 1: IV 4 mg/hr for 48 h then 2 mg/hr for 12 h, individual subjects, time 24 hr", "result": 72.6, "unit": "ng/mL"},
      {"measurement": "concentration at 48 h", "setting": "[1]; female, human, plasma, iv, GNX Concentration, Cohort 1: IV 4 mg/hr for 48 h then 2 mg/hr for 12 h, individual subjects, time 48 hr", "result": 78.1, "unit": "ng/mL"},
      {"measurement": "concentration at 72 h", "setting": "[1]; female, human, plasma, iv, GNX Concentration, Cohort 1: IV 4 mg/hr for 48 h then 2 mg/hr for 12 h, individual subjects, time 72 hr", "result": 10.1, "unit": "ng/mL"},
      {"measurement": "Ratio GNX Concentration (ng/mL)/(μg/hr/kg)", "setting": "[1]; time 12 hrs", "result": "0.99 (ng/mL)/(μg/hr/kg) and 1.24 (ng/mL)/(μg/hr/kg) and 0.74 (ng/mL)/(μg/hr/kg) and 1.21 (ng/mL)/(μg/hr/kg) (3×) and 0.94 (ng/mL)/(μg/hr/kg) and 0.90 (ng/mL)/(μg/hr/kg) and 0.87 (ng/mL)/(μg/hr/kg) and 0.76 (ng/mL)/(μg/hr/kg) and 1.08 (ng/mL)/(μg/hr/kg) (2×) and 0.53 (ng/mL)/(μg/hr/kg) and 1.14 (ng/mL)/(μg/hr/kg) and 0.83 (ng/mL)/(μg/hr/kg) and 0.89 (ng/mL)/(μg/hr/kg) and 0.97 (ng/mL)/(μg/hr/kg) (3×) and 0.82 (ng/mL)/(μg/hr/kg) and 0.80 (ng/mL)/(μg/hr/kg) (2×) and 1.02 (ng/mL)/(μg/hr/kg) and 0.86 (ng/mL)/(μg/hr/kg) and 0.60 (ng/mL)/(μg/hr/kg) and 1.28 (ng/mL)/(μg/hr/kg)"},
      {"measurement": "Ratio GNX Concentration (ng/mL)/(μg/hr/kg)", "setting": "[1]; time 24 hrs", "result": "1.22 (ng/mL)/(μg/hr/kg) (3×) and 1.45 (ng/mL)/(μg/hr/kg) and 0.96 (ng/mL)/(μg/hr/kg) (2×) and 1.53 (ng/mL)/(μg/hr/kg) and 0.28 (ng/mL)/(μg/hr/kg) and 0.63 (ng/mL)/(μg/hr/kg) and 1.12 (ng/mL)/(μg/hr/kg) (3×) and 1.32 (ng/mL)/(μg/hr/kg) (2×) and 0.86 (ng/mL)/(μg/hr/kg) and 1.36 (ng/mL)/(μg/hr/kg) and 1.03 (ng/mL)/(μg/hr/kg) (2×) and 1.16 (ng/mL)/(μg/hr/kg) and 1.34 (ng/mL)/(μg/hr/kg) and 0.95 (ng/mL)/(μg/hr/kg) and 0.92 (ng/mL)/(μg/hr/kg) and 1.48 (ng/mL)/(μg/hr/kg) and 0.55 (ng/mL)/(μg/hr/kg) and 0.13 (ng/mL)/(μg/hr/kg)"},
      {"measurement": "Ratio GNX Concentration (ng/mL)/(μg/hr/kg)", "setting": "[1]; time 48 hrs", "result": "1.31 (ng/mL)/(μg/hr/kg) and 1.39 (ng/mL)/(μg/hr/kg) and 1.42 (ng/mL)/(μg/hr/kg) and 1.12 (ng/mL)/(μg/hr/kg) and 1.23 (ng/mL)/(μg/hr/kg) (2×) and 1.01 (ng/mL)/(μg/hr/kg) and 0.97 (ng/mL)/(μg/hr/kg) and 1.06 (ng/mL)/(μg/hr/kg) and 0.81 (ng/mL)/(μg/hr/kg) and 1.09 (ng/mL)/(μg/hr/kg) and 0.78 (ng/mL)/(μg/hr/kg) (2×) and 1.02 (ng/mL)/(μg/hr/kg) and 1.76 (ng/mL)/(μg/hr/kg) and 1.17 (ng/mL)/(μg/hr/kg) and 1.47 (ng/mL)/(μg/hr/kg) and 1.20 (ng/mL)/(μg/hr/kg) and 1.60 (ng/mL)/(μg/hr/kg) and 0.55 (ng/mL)/(μg/hr/kg) and 1.56 (ng/mL)/(μg/hr/kg) and 0.80 (ng/mL)/(μg/hr/kg) and 0.84 (ng/mL)/(μg/hr/kg)"},
      {"measurement": "Ratio GNX Concentration (ng/mL)/(μg/hr/kg)", "setting": "[1]; time 72 hrs", "result": "0.17 (ng/mL)/(μg/hr/kg) (2×) and 0.31 (ng/mL)/(μg/hr/kg) and 0.28 (ng/mL)/(μg/hr/kg) and 0.33 (ng/mL)/(μg/hr/kg) (2×) and 0.18 (ng/mL)/(μg/hr/kg) and 0.10 (ng/mL)/(μg/hr/kg) and 0.25 (ng/mL)/(μg/hr/kg) and 0.32 (ng/mL)/(μg/hr/kg) and 0.29 (ng/mL)/(μg/hr/kg) and 0.24 (ng/mL)/(μg/hr/kg) and 0.21 (ng/mL)/(μg/hr/kg) (2×) and 0.36 (ng/mL)/(μg/hr/kg) and 0.16 (ng/mL)/(μg/hr/kg) (2×) and 0.13 (ng/mL)/(μg/hr/kg) (2×) and 0.23 (ng/mL)/(μg/hr/kg) (2×) and 0.34 (ng/mL)/(μg/hr/kg) and 0.35 (ng/mL)/(μg/hr/kg) and 0.38 (ng/mL)/(μg/hr/kg) and 0.19 (ng/mL)/(μg/hr/kg) (2×)"},
      {"measurement": "Potency and efficacy in activating GABAA receptors", "setting": "[2]", "result": "comparable to allopregnanolone"},
      {"measurement": "Anxiety, hyperactivity and attention", "setting": "[3]", "result": "reduced anxiety and hyperactivity and improved attention"},
      {"measurement": "Half-life", "setting": "[4]", "result": "approximately 20 hours"},
      {"measurement": "Interaction with hERG receptor", "setting": "[5]", "result": "did not interact"}
    ]}
  ]
}
